From US20110166078A1, “OLIGOSACCHARIDE COMPOUNDS FOR USE IN MOBILISING STEM CELLS” (ENDOTIS PHARMA, priority 2008, published 2011)
pIC50: −log10 of the molar value.

Columns and labels:
FGF-2 = FGF-2 (Homo sapiens, UniProt P09038); experiment: FGF-2/heparin competition assay by SPR (Biacore); format: binding; conditions: 10 nM FGF-2, biotinylated heparin, Sensorchip C1
Procedure: (§1) Heparin or low molecular weight heparin (6 kDa) from SIGMA were biotinylated at the reducing end and immobilized on a Biacore sensorchip. Different concentrations of the compounds of the present invention were co-incubated at a fixed concentration of targets: FGF-2, PDGF-β, VEGF-A or SDF-1α for 30 minutes. The mixture was then injected onto the streptavidin control (control reference) and HP surfaces. Only free growth factor (GF) or chemokine, i.e. the target molecules not bound to compounds of the present invention, were trapped on the heparin surface. From the binding of free targets on heparin, the percentages of inhibition were calculated and then reported in function of compound concentrations. The plot was fitted with a four-parameter model and IC50 was calculated. The 0% inhibition value was obtained for the injection of the studied target in running-buffer, and the 100% inhibition value was obtained for the injection of the studied target co-incubated with 10 μM of low molecular weight heparin 6 kDa.
A FGF-2/heparin competition assay using the Biacore technology was performed in the following conditions: 10 nM FGF-2, biotinylated heparin, Reference Streptavidin, Sensorchip C1, PBS-T 0.02%, Regeneration NaCl 2M
(§2) IC50 values of compounds of the present invention were determined using the Biacore technology for the growth factor and chemokine/heparin competition assays that contained the following proteins: VEGF-A, SDF-1α, FGF-2 and PDGF-β.

VEGF-A = molecular target: T1, VEGF-A (Homo sapiens, UniProt P15692); experiment: VEGF-A/heparin competition assay by SPR (Biacore); format: binding; conditions: 10 nM VEGF-A, biotinylated low molecular weight heparin, Sensorchip SA
T1 sequence (P15692 27-191 isoform P15692-4): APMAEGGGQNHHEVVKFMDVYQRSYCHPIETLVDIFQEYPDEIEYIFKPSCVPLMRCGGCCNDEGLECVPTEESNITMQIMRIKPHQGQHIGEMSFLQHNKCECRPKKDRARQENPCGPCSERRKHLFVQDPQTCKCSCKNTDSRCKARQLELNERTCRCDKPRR
Procedure: as §1
A VEGF-A/heparin competition assay using the Biacore technology was performed using the following conditions: 10 nM VEGF-A, biotinylated low molecular weight heparin, Reference Streptavidin, Sensorchip SA, HBS-P, Regeneration NaCl 2M.
as §2

SDF-1α = SDF-1α (Homo sapiens, UniProt P48061); experiment: SDF-1α/heparin competition assay by SPR (Biacore); format: binding; conditions: 96 nM SDF-1α, biotinylated low molecular weight heparin (6 kDa), Sensorchip SA
Procedure: as §1
A SDF-1α/heparin competition assay using the Biacore technology was performed using the following conditions: 96 nM SDF-1α, biotinylated low molecular weight heparin (6 kDa), Reference Streptavidin, Sensorchip SA, HBS-P, Regeneration NaCl 2M
as §2

heparanase = molecular target: T2, heparanase (Homo sapiens, UniProt Q9Y251); experiment: Anti-heparanase activity (fondaparinux degradation / factor Xa chromogenic assay); format: biochemical
T2 sequence (Q9Y251 158-543 limits assumed): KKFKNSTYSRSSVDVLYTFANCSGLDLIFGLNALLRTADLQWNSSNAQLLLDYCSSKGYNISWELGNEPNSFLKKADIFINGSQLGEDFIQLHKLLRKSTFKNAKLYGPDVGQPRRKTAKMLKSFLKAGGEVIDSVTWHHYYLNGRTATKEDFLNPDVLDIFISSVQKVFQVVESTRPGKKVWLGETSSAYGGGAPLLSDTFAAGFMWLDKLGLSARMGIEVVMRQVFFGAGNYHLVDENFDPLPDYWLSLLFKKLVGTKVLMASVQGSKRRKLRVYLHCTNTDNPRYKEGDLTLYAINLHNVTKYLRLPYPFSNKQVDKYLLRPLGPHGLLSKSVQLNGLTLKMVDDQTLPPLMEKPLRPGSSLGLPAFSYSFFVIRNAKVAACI
T2 sequence (Q9Y251 36-109 limits assumed): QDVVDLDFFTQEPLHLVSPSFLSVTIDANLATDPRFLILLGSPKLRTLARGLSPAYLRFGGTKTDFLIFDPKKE
Procedure: To determine the compounds IC50 values for the heparanase target, we adapted an assay based on the ability of heparanase to degrade fondaparinux (Sanofi patent No. 287 3377 FR), and the capacity of fondaparinux to inhibit factor Xa activity via AT III binding. This assay was carried out on a STA Compact robot (Diagnostica Stago). Briefly, different concentrations of compounds were added to a mixture containing the heparanase enzyme and fondaparinux and after a time-fixed incubation period, AT III, Factor Xa and a chromogenic substrate (CBS 31.39) were sequentially added to the reaction mix. Production of paranitroanilin resulting from the degradation of the chromogenic substrate CBS 31.39 was monitored at 405 nm. Data obtained for the different concentration points were plotted using a four-parameter fit model and IC50 determined.

pIC50 (FGF-2)	pIC50 (VEGF-A)	pIC50 (SDF-1α)	pIC50 (heparanase)	Structure (SMILES)
8.35	8.28	7.37	8.04	C#CCCCOC1OC(COS(=O)(=O)[O-])C(OC2OC(C(=O)[O-])C(OC3OC(COS(=O)(=O)[O-])C(OC4OC(C(=O)[O-])C(OC5OC(COS(=O)(=O)[O-])C(OC6OC(C(=O)[O-])C(OCc7ccccc7)C(OCc7ccccc7)C6OS(=O)(=O)[O-])C(OCc6ccccc6)C5NS(=O)(=O)[O-])C(OCc5ccccc5)C4OS(=O)(=O)[O-])C(OCc4ccccc4)C3NS(=O)(=O)[O-])C(OCc3ccccc3)C2OS(=O)(=O)[O-])C(OCc2ccccc2)C1NS(=O)(=O)[O-].[Na+].[Na+].[Na+].[Na+].[Na+].[Na+].[Na+].[Na+].[Na+].[Na+].[Na+].[Na+] (centres unmarked) [Compound 239]
8.44	8.32	7.64	9.38	C#CCCCOC1OC(COS(=O)(=O)[O-])C(OC2OC(C(=O)[O-])C(OC3OC(COS(=O)(=O)[O-])C(OC4OC(C(=O)[O-])C(OC5OC(COS(=O)(=O)[O-])C(OC6OC(C(=O)[O-])C(OC7OC(COS(=O)(=O)[O-])C(OC8OC(C(=O)[O-])C(OCc9ccccc9)C(OCc9ccccc9)C8OS(=O)(=O)[O-])C(OCc8ccccc8)C7NS(=O)(=O)[O-])C(OCc7ccccc7)C6OS(=O)(=O)[O-])C(OCc6ccccc6)C5NS(=O)(=O)[O-])C(OCc5ccccc5)C4OS(=O)(=O)[O-])C(OCc4ccccc4)C3NS(=O)(=O)[O-])C(OCc3ccccc3)C2OS(=O)(=O)[O-])C(OCc2ccccc2)C1NS(=O)(=O)[O-].[Na+].[Na+].[Na+].[Na+].[Na+].[Na+].[Na+].[Na+].[Na+].[Na+].[Na+].[Na+].[Na+].[Na+].[Na+].[Na+] (centres unmarked) [Compound 240]
